Experimental data taken from US20140024663A1, “ATB(0,+) AMINO ACID TRANSPORTER AS A DRUG TARGET FOR TREATMENT OF ESTROGEN RECEPTOR-POSITIVE BREAST CANCER” (GEORGIA HEALTH SCIENCES UNIVERSITY RESEARCH INSTITUTE, INC., priority 2012, published 2014).

How the values were obtained:
ZR75.1 cells [1] = assay: QCM cell migration assay; type: cell-based, human; conditions: ZR75.1, α-MT 2.5 mM, 48 h, p>0.05
Method: (§1) Migration and invasion assays. The influence of α-MT on cell migration and invasion was determined with ZR75.1 cells. The migration of these cells toward fetal bovine serum was measured using the QCM™ cell migration assay kit (Millipore) according to manufacturer's instructions. Serum-starved ZR75.1 cells were allowed to migrate for 48 h in the presence/absence of α-MT (2.5 mM). After removing the cells on the top of the membrane filter, the inserts were stained with 0.1% crystal violet, washed and dried. The crystal violet dye retained on the filters, representing the cells that migrated to the underside of the membrane filter, was extracted with acetic acid. The absorbance of the extract was measured at 570 nm. Cell invasion assay was performed similarly using the QCM™ cell invasion assay kit (Millipore). The inserts used in this assay were coated with ECMATRIX™, representing extracellular matrix.

ZR75.1 cells [2] = assay: QCM cell invasion assay; type: cell-based, human; conditions: ZR75.1, α-MT 2.5 mM, p>0.05
Method: as §1

MCF7 cells [3] = assay: Xenograft in nude mice with estrogen pellets, tumor growth; type: in vivo, Balb/c nude mice; conditions: MCF7 (ER-positive) in the presence of estrogen administration, α-MT in drinking water 2 mg/ml
Method: FIGS. 10A to 10D. In vivo efficacy of α-MT in the treatment of ER-positive breast cancer. ZR75.1 (FIG. 10A), MCF7 (FIG. 10B), and MB-231 (FIG. 10C) cells were injected subcutaneously (sc) into Balb/c nude mice (10×10^6 cells per injection site). For MCF7 cells, slow-releasing estrogen pellets were implanted to support the tumor growth. For each cell line, the control group received water with sucrose and the treatment group received α-MT (2 mg/ml) in water with sucrose. Tumor size was measured periodically. NS, not statistically significant (p>0.05); *, p<0.005; two-tailed unpaired Student's t test. In FIG. 10D, Balb/c nude mice were divided into two groups; the control group received water with sucrose and the treatment group received α-MT (2 mg/ml) in water with sucrose for 2 weeks. Mice were then bled and α-MT in plasma was determined by HPLC. Xenograft in nude mice. Human breast cancer cells (ZR75.1, MCF7, and MB231) were injected s.c. close to the lower mammary gland on the right side of Balb/c nude mice (10×10^6 cells per injection site). Only for MCF7 cells, slow-releasing estrogen pellets were implanted to support the tumor growth. Implantation of estrogen pellets was done as follows. […] Tumor size in control and treatment groups was measured periodically by caliper and […] was calculated using the formula (width^2×length)/2.

MCF7 cells [4] = assay: Cell death by propidium iodide staining and FACS cell cycle analysis; type: cell-based, human; conditions: 48 h
Method: Fluorescence-activated cell sorting (FACS) was used to monitor cell death. MCF7 cells were treated with or without α-MT, 3-MA, or α-MT plus 3-MA. Control and treated cells were then fixed in 50% ethanol, treated with 0.1% sodium citrate, 1 mg/ml RNase A, and 50 μg/ml propidium iodide, and then subjected to FACS analysis (FACS Caliber, Becton Dickinson).

MB231 cells = assay: Western blot of lamin A degradation product (caspase-6 substrate); type: cell-based, human; conditions: SLC6A14-negative MB231 cells, α-MT 2.5 mM, identical conditions
Method: (§2) FIGS. 9A to 9D. Influence of α-MT on mTOR activity In FIG. 9A, MCF7 and MB231 cells were treated without or with α-MT (2.5 mM) for 24 h, 48 h, or 72 h, and then the cell lysates were used for western blot. Influence of α-MT with or without 3-MA on cell death. In FIG. 9B, MCF7, MB231, and MCF10A cells were treated for 48 h without or with α-MT (2.5 mM), 3-MA (10 mM), or α-MT (2.5 mM) plus 3-MA (10 mM), and then analyzed for cell death by propidium iodide (PI) staining and FACS-based cell cycle analysis. In FIG. 9C, MCF7 cells were treated for 48 h without or with α-MT (2.5 mM), 3-MA (10 mM), or α-MT (2.5 mM) plus 3-MA (10 mM), and then analyzed for apoptotic cell death by annexin V labeling. In FIG. 9D, MCF7 and MB231 cells were treated without or with 2.5 mM α-MT for 24 h, 48 h, or 72 h. Cell lysates were then used for western blot analysis of lamin A degradation product using an antibody that recognizes specifically the proteolytic cleavage product. β-Actin was used as an internal control.

MCF7 cells [5] = assay: as above; type: cell-based, human; conditions: MCF7, α-MT 2.5 mM, 24, 48 or 72 h
Method: as §2

MCF10A cells = assay: ASNS and CHOP mRNA by RT-PCR as readout for amino acid deprivation; type: cell-based, human; conditions: SLC6A14-negative MCF10A, α-MT 2.5 mM, 24, 48 or 72 h
Method: FIGS. 6A to 6C. Effects of SLC6A14 blockade with α-MT in breast cancer cells. In FIG. 6A, MCF10A (a non-malignant mammary epithelial cell line), MCF7 (an ER-positive breast cancer cell line), and MB231 (an ER-negative breast cancer cell line) cells were treated with or without 2.5 mM α-MT for 24, 48, or 72 h and then used for analysis of asparagine synthetase (ASNS) and CHOP mRNA levels. In FIG. 6B, MCF7, MB231 and MCF10A cells were treated with or without 2.5 mM α-MT for 48 h and then used for immunocytochemical analysis of the constitutively expressed LC-3. In FIG. 6C, MCF7 cells were treated with (“b” and “c”) or without (“a”) α-MT (2.5 mM) for 48 h and then used for electron microscopy. Arrows indicate sequestration of cytoplasm and organelles in pre-autophagosomes and autophagosome, and the asterisk indicates condensed chromatin. N, nucleus.
RT-PCR. Total RNA was isolated using TRIZOL™ (Invitrogen). 2 μg of RNA was reverse transcribed using the GeneAmp PCR System (Applied Biosystems, Branchburg, N.J.). PCR reaction was performed under optimal conditions specific for each of the primer pairs. GAPDH (glyceraldehyde-3-phosphate dehydrogenase) or HPRT1 (hypoxanthine/guanine phosphoribosyl transferase-1) were used as internal controls. PCR products were size-fractionated on agarose gel, stained with ethidium bromide and imaged using Alpha Imager (Santa Clara, Calif.). […]

mTOR in MCF7 cells = assay: mTOR activity by western blot (phosphorylation of S6 and S6 kinase); type: cell-based, human; conditions: MCF7, α-MT 2.5 mM, 24, 48 or 72 h
Method: as §2

## CC(N)(Cc1c[nH]c2ccccc12)C(=O)O (racemic) [α-MT, α-methyl-DL-tryptophan]
ZR75.1 cells [1]
  migration in α-MT-treated cells: 87±7 % of control
ZR75.1 cells [2]
  invasion in α-MT-treated cells: 95±14 % of control
MCF7 cells [3]
  tumor growth in xenograft: did not affect the growth
MCF7 cells [4]; MCF7, α-MT 2.5 mM alone
  cell death (propidium iodide, cell cycle analysis): significant cell death
MCF7 cells [4]; MCF7, α-MT 2.5 mM with cotreatment 3-MA 10 mM
  cell death (propidium iodide, cell cycle analysis): further potentiated
MB231 cells
  apoptosis (Lamin A cleavage): no evidence of apoptosis
MCF7 cells [5]
  apoptotic cell death shown by Lamin A cleavage: cleavage of Lamin A
MCF10A cells
  levels of asparagine synthetase mRNA and CHOP mRNA: not
mTOR in MCF7 cells
  mTOR inhibition: phosphorylation of S6 and S6 kinase: decreased phosphorylation
